The values below come from US5185436A, “Esters of normal butyric acid and their use as pharmaceuticals” (priority 1990, dated 1993).

Data set [1] can be described thus: Acute toxicity, SWISS mouse (median lethal dose). Conditions: in vivo, read-out: Median lethan dose. As to the method:
(§1) The toxicities which are acute with the SWISS mouse and chronic with the albino rat are determined according to the usual standardized protocols.

The subject of data set [2] is TG 180 strain. The experiment in a line: In vivo antitumoral test with the mouse, first experiment. To be noted: for number of survivors (tumor +) / number of survivors (tumor -) / number of animals with tumors: 15 mice per batch; for number of survivors (tumor +) / number of survivors (tumor -): compounds I to V alternately with CP and interferon; for number of animals with tumors: compounds I to V alternately with CP and interferon (0.5 ml of 8 mmolar solution), three weeks; for antitumoral therapeutic efficiency: with respect to reference batches No. 1, 2, 3 and 4, in words. On the set-up: species or system SWISS mouse. As to the method:
(3) In vivo antitumoral tests with the mouse.
The studies on the antitumoral properties have been carried out with the mouse according the CHANY and CERRUTI protocol (Int. J. Cancer, 1982, 30, 489) on the hereabove compounds I to V.
In order to obtain a tumor or tumors with mice, one uses the TG 180 strain (injection via the i.p. route of 10^6 cells for a male mouse of 25 g and of 0.1 ml of a solution of Corynbacterium Parvum Merieux (CP)).
This experiment bears on 135 SWISS mice devided into 9 batches of 15 mice each. After injection on day D0 of the TG 180 and CP cells, one proceeds in the following manner:
The reference batch No. 1 is treated every day with an injection of placebo.
The reference batch No. 2 is treated every day with an injection of CP (0.1 ml).
The reference batch No. 3 is treated every day with an injection of interferon EAT-113, 0.5 ml.
The reference batch No. 4 is treated every day alternately with CP and with interferon EAT-113, with the same doses as hereabove.
The experimental batches are treated, alternately on day D+1 with the compound according to the invention (0.5 ml of an 8 mmolar solution of a compound I to V), on day D+2 with interferon EAT-113, on day D+3 with CP, and this for three weeks.
The number of survivors is noted, as well as the presence or not of a tumor (tumor+ or tumor-) in the survivors five weeks after day D0.

The test system of data set [3] is TG 180 strain. The description is as above. On the set-up: species or system SWISS mouse. To be noted: 15 mice per batch; compounds I to V alternately with CP and interferon.
A short description of another data set: Solubility in water. The format is physicochemical.
The test system of data set [4] is rat. The data set can be described thus: Lethality in the rat. The format is in vivo. To be noted: administration of 1.12 g/kg to the rat. The method, then:
as §1

The test system of data set [5] is cells infected by the murine AIDS TR-26 virus. The experiment in a line: In vitro action on cells infected by murine AIDS virus. Conditions: in words. The format is cell-based.
For data set [6], the system named is neoplasic mammary cells (strain NCF 410). The experiment in a line: In vitro action on neoplasic mammary cells. The format is cell-based. To be noted: association with interferon EAT-113; in words.
Data set [7] has as its system Herpes hominis type II virus. Conditions: in vivo, with interferon EAT-113; in words.
The subject of data set [8] is TG 180 strain. The experiment in a line: In vivo antitumoral test with the mouse, second experiment (dose effect).
Data set [9] can be described thus: Solubilizing of the products for the in vivo antitumoral test. The format is physicochemical. To be noted: explanation for the small number of survivors; in words.
Data set [10] has as its system rat. Conditions: Merck Index 10th edition; cited from earlier work.
The test system of data set [11] is TG 180 strain. To be noted: mouse; cited from earlier work.
Another data set concerns man. Conditions: massive dose; Brazier et al; in words; cited from earlier work.
The conditions of data set [12]: rabbit, i.v. 0.12 g/kg, t=60 min; cited from earlier work.
The subject of the next data set is fibroblasts. To be noted: in words; cited from earlier work.
Another data set concerns herpes virus. To be noted: in words; cited from earlier work.

SMILES strings stand for the structures. Where two headings read alike, the source gives them in different places.

Regarding `CCCC(=O)O[C@@H]1[C@H]2OC(C)(C)O[C@H]2O[C@@H]1[C@H]1COC(C)(C)O1` [Compound I, O-butanoyl-3-di-O-isopropylidene 1,2: 5,6 α-D-glucofuranose], the LD50 in [1] (ip) came out at 1750 ± 390 mg/kg. Also, in data set [1] (oral route), the LD50 was over 8000 mg/kg. In the data set on TG 180 strain [2], the “number of survivors (tumor +)” value worked out at 3, the “number of survivors (tumor -)” value came out at 7, the “number of animals with tumors” value is 9 and the antitumoral therapeutic efficiency entry is “very good antitumoral therapeutic efficiency”. Moreover, the “number of survivors after 6 weeks” value in the data set on TG 180 strain [3] was determined as 10. The solubility in water result in the data set “Solubility in water” (in words) was “slightly soluble in water”. Also, the lethality result with rat [4] is recorded as “does not cause any lethality”.
Consider `CCCC(=O)O[C@@H]1[C@H]2OC(C)(C)O[C@H]2O[C@@H]1[C@H](O)CO` [Compound II], for which the LD50 in data set [1] (ip) is 4200 ± 400 mg/kg. Also, the LD50 in data set [1] (oral route) was over 8000 mg/kg. In the data set on TG 180 strain [2], the “number of survivors (tumor +)” value was 0, the “number of survivors (tumor -)” value was determined as 9, the “number of animals with tumors” value amounted to 10 and the antitumoral therapeutic efficiency result was “very good antitumoral therapeutic efficiency”. Besides, the “action in vitro compared with arginine butyrate” value in data set [5] is recorded as “stronger action in vitro on the cells infected by the murine AIDS TR-26 virus than the arginine butyrate”. The “number of survivors after 6 weeks” value with TG 180 strain [3] is on record as 9. The “in vitro action compared with arginine butyrate and interferon EAT-113” value in data set [6] is “stronger than the association of arginine butyrate and interferon EAT-113”. This compound also returned a solubility in the data set “Solubility in water” (water, room temperature) of over 100 mg/mL. In addition, the “potentialization of the action of interferon EAT-113” value in data set [7] was “potentialization of the action of interferon EAT-113 on the Herpes hominis type II virus”. Further, the “survival after 100 days” value with TG 180 strain [8] (administered alternately with CP and interferon, whatever the concentration between 0.25 and 50 mmol/l) is listed as 30 mice amongst 45. Further, the “number of surviving mice after 100 days” value in the data set with TG 180 strain [8] (alternately with CP, interferon omitted, average, 0.5 to 50 millimoles/l) came out at 20 mice amongst 45. In addition, the “therapeutic results of the association with CP alone compared with interferon, CP plus arginine butyrate” value in the data set with TG 180 strain [8] (compound II plus CP, no interferon, in words) is on record as “as good as the association of interferon with CP plus arginine butyrate”. Also, the “dose sufficient for obtaining the maximum therapeutic effect” value in the data set on TG 180 strain [8] (mouse) is ≤ 0.44 mg of potential n-butyric acid per kilogramme of mouse.
For `CCCC(=O)OC[C@@H](O)[C@H]1O[C@@H]2OC(C)(C)O[C@@H]2[C@H]1O` [III, O-butanoyl-6-O-isopropylidene-1,2α-D-glucofuranose], in data set [1] (ip), the LD50 came to 3000 ± 350 mg/kg. The LD50 in data set [1] (oral route) is over 8000 mg/kg. Besides, in the data set on TG 180 strain [2], the “number of survivors (tumor +)” value was found to be 3, the “number of survivors (tumor -)” value is on record as 8, the “number of animals with tumors” value was 7 and the antitumoral therapeutic efficiency entry was “very good antitumoral therapeutic efficiency”. The “number of survivors after 6 weeks” value in the data set with TG 180 strain [3] is reported as 11.
Regarding `CCCC(=O)OC[C@@H](OC(=O)CCC)[C@H]1O[C@@H]2OC(C)(C)O[C@@H]2[C@H]1OC(=O)CCC` [IV, tri-O-butanoyl 3,5,6-O-isopropylidene-1,2 α-D-glucofuranose], in data set [1] (ip), the LD50 is over 8000 mg/kg. Moreover, the LD50 in [1] (oral route) is over 8000 mg/kg. In the data set on TG 180 strain [2], the “number of survivors (tumor +)” value came to 0, the “number of survivors (tumor -)” value was 3 and the “number of animals with tumors” value was determined as 13. For the same compound, the “number of survivors after 6 weeks” value in the data set with TG 180 strain [3] worked out at 3. The solubilizing result in data set [9] is “difficulties for solubilizing these products”.
Turning to `CCCC(=O)OCC(O)CO` (centres unmarked) [IX, O-n-butanoyl-1, propane diol-2,3], the LD50 is 2250 ± 230 mg/kg in data set [1] (ip) and over 8000 mg/kg in [1] (oral route).
Regarding `CCCC(=O)OC[C@H]1O[C@@H]2OC(C)(C)O[C@@H]2[C@H]2OC(C)(C)O[C@H]21` [V, O-n-butanoyl-6 di-O-isopropylidene-1,2:3,4α-D-galactopyranose], the LD50 in data set [1] (ip) was determined as 2500 ± 400 mg/kg. In [1] (oral route), the LD50 is over 8000 mg/kg. In the data set on TG 180 strain [2], the “number of survivors (tumor +)” value stood at 0, the “number of survivors (tumor -)” value was found to be 3 and the “number of animals with tumors” value was 12. The “number of survivors after 6 weeks” value with TG 180 strain [3] came out at 3. The solubilizing entry in data set [9] was “difficulties for solubilizing these products”.
Take `CCCC(=O)OC[C@H]1OC(OC(=O)CCC)[C@H](OC(=O)CCC)[C@@H](OC(=O)CCC)[C@H]1OC(=O)CCC` (stereo partly drawn) [VI, penta O-n-butanoyl-1,2,3,4,6 D-galactopyranose]: the LD50 in [1] (ip) and in data set [1] (oral route) was over 8000 mg/kg throughout.
As to `CCCC(=O)OC[C@H]1OC(OC(=O)CCC)[C@H](OC(=O)CCC)[C@@H](OC(=O)CCC)[C@@H]1OC(=O)CCC` (stereo partly drawn) [VII, penta- O-n-butanoyl-1,2,3,4,6 D-glucopyranose], the LD50 in data set [1] (ip) and in [1] (oral route) was over 8000 mg/kg throughout.
Regarding `CCCC(=O)OCC1COC(C)(C)O1` (centres unmarked) [VIII, O-n-butanoyl-1-isopropylidene-2,3-glyceryl], the LD50 in data set [1] (ip) is 5400 ± 300 mg/kg; in data set [1] (oral route), over 8000 mg/kg.
In the case of `CCCCCCCCCCCCCCCC(=O)OCC(COC(=O)CCC)OC(=O)CCCCCCCCCCCCCCC` (centres unmarked) [X, O-butanoyl-3-di-O-palmitoyl-1,2 glyceryl], the LD50 in [1] (ip) is over 2000 mg/kg; in [1] (oral route), over 6000 mg/kg.
Take `CCCCCCCCCCCCCCCC(=O)OCC(COC(=O)CCC)OC(=O)CCC` (centres unmarked) [XI, di-O-butanoyl-2,3 O-palmitoyl-1-glyceryl]: the LD50 in data set [1] (ip) and in [1] (oral route) was over 8000 mg/kg each time.
On to `CC(C)=O` [acetone], for which, in the data set on rat [10], the “median lethal dose p.o.” value is 10.7 mL/kg.
With `CCCC(=O)O` [arginine n-butyrate], the optimal dose advocated with TG 180 strain [11] is 14 mg of butyric acid. Further, the “side effects in man” value with man was “side effects in man, of the hyperammoniemy type with a reduction of the insulin secretion and disturbances of the urea cycle and of glucose metabolism”. Also, the “surviving mice after 100 days” value in the data set on TG 180 strain [8] (association of CP plus arginine butyrate without interferon) amounted to 8 mice amongst 45. For the same compound, the therapeutic efficiency entry in the data set on TG 180 strain [8] (association of CP plus arginine butyrate without interferon, in words) is “low therapeutic efficiency”. Moreover, the “n-butyric acid present in serum” value in data set [12] is 0 mmol/L.
For `CCCC(=O)[O-].[Na+]` [sodium n-butyrate], the “inhibiting actions on the growth of fibroblasts” value in the data set on fibroblasts was “interesting inhibiting actions on the growth of fibroblasts”. In addition, the antiviral actions result in the data set on herpes virus was “antiviral actions of sodium butyrate have also been characterized for the herpes virus”.
